Test results from the supplement of paper PMC10307832.

How the values were obtained:
Assay in all cases: relative viability (nuclei count vs DMSO), 5 days (fraction); higher = more cells survive
VE-821 + Navitoclax = compound: CS(=O)(=O)c1ccc(-c2cnc(N)c(C(=O)Nc3ccccc3)n2)cc1 [VE-821] + CC1(C)CCC(c2ccc(Cl)cc2)=C(CN2CCN(c3ccc(C(=O)NS(=O)(=O)c4ccc(N[C@H](CCN5CCOCC5)CSc5ccccc5)c(S(=O)(=O)C(F)(F)F)c4)cc3)CC2)C1 [Navitoclax] (partner 0.5 µM)
How it was run: (§1)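 For relative viability, nuclei counts in treated wells were divided by those in vehicle wells. Lung cancer cell lines had been pin-tool dosed in 1536-well plates the day after seeding and cultured for 5 days, then fixed and stained in one step (final 0.05% Triton X-100, 1% formaldehyde, 1 ug/ml Hoechst) and imaged at 4×. Doses were one drug alone or a fixed anchor-drug dose plus five library-drug doses (not always all listed) in √10 steps, and values are duplicate-plate medians.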

VE-821 + Phenformin = compound: CS(=O)(=O)c1ccc(-c2cnc(N)c(C(=O)Nc3ccccc3)n2)cc1 [VE-821] + N=C(N)NC(=N)NCCc1ccccc1 [Phenformin] (partner 250 µM)
How it was run: as §1

Vismodegib + Trametinib = compound: CS(=O)(=O)c1ccc(C(=O)Nc2ccc(Cl)c(-c3ccccn3)c2)c(Cl)c1 [Vismodegib] + CC(=O)Nc1cccc(-n2c(=O)n(C3CC3)c(=O)c3c(Nc4ccc(I)cc4F)n(C)c(=O)c(C)c32)c1 [Trametinib] (partner 0.02 µM)
How it was run: as §1

Vismodegib + Luminespib = compound: CS(=O)(=O)c1ccc(C(=O)Nc2ccc(Cl)c(-c3ccccn3)c2)c(Cl)c1 [Vismodegib] + CCNC(=O)c1noc(-c2cc(C(C)C)c(O)cc2O)c1-c1ccc(CN2CCOCC2)cc1 [Luminespib] (partner 0.01 µM)
How it was run: as §1

| Cell Line | relative viability (VE-821 + Navitoclax; first compound 0.08 µM) | relative viability (VE-821 + Navitoclax; first compound 0.253 µM) | relative viability (VE-821 + Navitoclax; first compound 2.53 µM) | relative viability (VE-821 + Navitoclax; first compound 8 µM) | relative viability (VE-821 + Phenformin; first compound 0.08 µM) | relative viability (VE-821 + Phenformin; first compound 0.253 µM) | relative viability (VE-821 + Phenformin; first compound 0.8 µM) | relative viability (VE-821 + Phenformin; first compound 2.53 µM) | relative viability (VE-821 + Phenformin; first compound 8 µM) | relative viability (Vismodegib + Trametinib; first compound 0.08 µM) | relative viability (Vismodegib + Trametinib; first compound 0.253 µM) | relative viability (Vismodegib + Trametinib; first compound 0.8 µM) | relative viability (Vismodegib + Trametinib; first compound 2.53 µM) | relative viability (Vismodegib + Trametinib; first compound 8 µM) | relative viability (Vismodegib + Luminespib; first compound 0.08 µM) | relative viability (Vismodegib + Luminespib; first compound 0.253 µM) | relative viability (Vismodegib + Luminespib; first compound 0.8 µM) | relative viability (Vismodegib + Luminespib; first compound 2.53 µM) | relative viability (Vismodegib + Luminespib; first compound 8 µM) | relative viability (VE-821 + Navitoclax; first compound 0.8 µM) |
| --- | --- | --- | --- | --- | --- | --- | --- | --- | --- | --- | --- | --- | --- | --- | --- | --- | --- | --- | --- | --- |
| NCI-H520 | 1.16 | 1.15 | 1.1 | 0.671 | 0.575 | 0.613 | 0.375 | 0.818 | 0.381 | 0.702 | 0.554 | 0.768 | 0.692 | 0.74 | 0.24 | 0.225 | 0.198 | 0.207 | 0.212 | – |
| NCI-H2087 | 1.04 | 1.04 | 1.17 | 0.892 | 0.562 | 0.486 | 0.427 | 0.438 | 0.375 | 0.199 | 0.183 | 0.166 | 0.172 | 0.213 | 0.171 | 0.192 | 0.172 | 0.203 | 0.209 | 1.06 |
| NCI-H2347 | 0.941 | 0.809 | 0.959 | 0.763 | 0.476 | 0.295 | 0.347 | 0.495 | 0.358 | 0.311 | 0.286 | 0.265 | 0.301 | 0.288 | 0.402 | 0.759 | 0.709 | 0.399 | 0.586 | 0.775 |
| NCI-H838 | 1.3 | 1.11 | 1.18 | 1.07 | 0.605 | 0.454 | 0.528 | 0.599 | 0.385 | 0.536 | 0.488 | 0.535 | 0.5 | 0.624 | 0.247 | 0.271 | 0.33 | 0.409 | 0.331 | 1.02 |
| LXF-289 | 1.01 | 0.967 | 1.1 | 1.01 | 0.541 | 0.53 | 0.532 | 0.527 | 0.562 | 0.675 | 0.654 | 0.723 | 0.664 | 0.648 | 0.625 | 0.691 | 0.764 | 0.611 | 0.738 | 0.989 |
| LC-2-ad | 0.587 | 0.413 | 0.622 | 0.291 | 0.666 | 0.593 | 0.661 | 0.686 | 0.591 | 0.892 | 0.834 | 0.894 | 0.834 | 0.898 | 1.01 | 0.957 | 0.975 | 0.955 | 1.06 | 0.566 |
| NCI-H2085 | 1.12 | 1.12 | 1.24 | 1.03 | 0.762 | 0.674 | 0.558 | 0.869 | 0.481 | 0.551 | 0.549 | 0.594 | 0.621 | 0.539 | 0.393 | 0.441 | 0.423 | 0.434 | 0.474 | 1.24 |
